Measurements reported in ChEMBL document CHEMBL4831523, “Taichunins E-T, Isopimarane Diterpenes and a 20-nor-Isopimarane, from Aspergillus taichungensis (IBT 19404): Structures and Inhibitory Effects on RANKL-Induced Formation of Multinuclear Osteoclasts” (J Nat Prod, 2021).
Active and inactive are the calls of the source. The calls are words filed in the database; no cut-off is given here.

Columns and labels:
RAW264.7 [1] = assay: Cytotoxicity against RANKL-treated mouse RAW264.7 cells assessed as effect on cell viability at 50 uM measured after 4 days by MTT assay; format: cell-based; details: raw264.7, 96 h, time 4 day
RAW264.7 [2] = assay: Inhibition of RANKL-induced osteoclastogenesis in mouse RAW264.7 cells assessed as reduction in number of TRAP-positive multinuclear cells measured after 4 days by TRAP staining based assay; format: functional, cell-based; details: for inhibition: time 4.0 day
RAW264.7 [3] = assay: Inhibition of RANKL-induced osteoclastogenesis in mouse RAW264.7 cells assessed as reduction in Nfatc1 mRNA expression at 30 uM measured after 24 hrs by qRT-PCR method; format: functional
RAW264.7 [4] = assay: Inhibition of RANKL-induced osteoclastogenesis in mouse RAW264.7 cells assessed as reduction in TRAP activity at 5 uM measured after 4 days by pNPP based assay; format: functional, cell-based; details: time 4.0 day
RAW264.7 [5] = assay: Inhibition of RANKL-induced osteoclastogenesis in mouse RAW264.7 cells assessed as reduction in TRAP activity measured after 4 days by pNPP based assay; format: functional, cell-based; details: dose 0.2-1 µM, time 4.0 day
RAW264.7 [6] = assay: Inhibition of RANKL-induced osteoclastogenesis in mouse RAW264.7 cells assessed as reduction in number of TRAP-positive multinuclear cells at 5 uM measured after 4 days by TRAP staining based assay; format: functional, cell-based; details: time 4.0 day
RAW264.7 [7] = assay: Inhibition of RANKL-induced osteoclastogenesis in mouse RAW264.7 cells assessed as reduction in number of TRAP-positive multinuclear cells at 0.2 uM measured after 4 days by TRAP staining based assay; format: functional; details: RAW264.7, 96 h, time 4 day

| Compound | Activity (RAW264.7 [1]) | other results |
| --- | --- | --- |
| C=C[C@@]1(C)CC[C@]2(O)[C@@]34CCCC(C)(C)C3=C(O)C(=O)[C@@]2(OC4=O)[C@H]1O | Non-Toxic |  |
| C=C[C@]1(C)C=C2[C@@H](O)[C@@]3(O)OC(=O)[C@@]4(CCCC(C)(C)[C@H]34)[C@@]2(O)CC1 [SPHAEROPSIDIN B] | Non-Toxic | IC50 (RAW264.7 [2]; RAW264.7, 96 h): 10.6 µM; inhibition at 30 µM (RAW264.7 [3]): 63% |
| C=C[C@]1(C)C=C2C(=O)C[C@H]3C(C)(C)CCC[C@]3(C(=O)O)[C@@]2(O)CC1 [SPHAEROPSIDIN C] | Non-Toxic |  |
| C=C[C@@]1(C)C[C@@H](O)[C@H]2C(=C[C@H](O)[C@H]3C(C)(C)CCC[C@]23C)[C@H]1O | Non-Toxic |  |
| C=C[C@]1(C)C=C2[C@@H](O)C[C@H]3C(C)(C)CCC[C@]3(C(=O)O)[C@H]2CC1 | Non-Toxic |  |
| C=C[C@]1(C)C=C2[C@H]3OC(OC)[C@@]4([C@H](O)CCC(C)(C)[C@@H]4[C@H]3O)[C@H]2CC1 (stereo not given in full) | Non-Toxic |  |
| C=C[C@@]1(C)CC[C@H]2[C@H]([C@H]1O)[C@@H](O)C[C@H]1C(C)(C)CCC[C@]21C(=O)O | Non-Toxic |  |
| C=C[C@]1(C)C=C2C(=O)C[C@H]3C(C)(C)CC[C@@H](O)[C@]3(C(=O)O)[C@H]2CC1 | Non-Toxic |  |
| C=C[C@]1(C)C=C2[C@H]3OC(=O)[C@@]4(CCCC(C)(C)[C@@H]4[C@H]3O)[C@@]2(O)CC1 | Non-Toxic |  |
| C=C[C@]1(C)C=C2[C@@H](O)C[C@H]3C(C)(C)CCC[C@]3(C(=O)O)[C@@]2(O)[C@H](O)C1 | Non-Toxic |  |
| C=C[C@]1(C)C=C2[C@H]3OC(=O)[C@@]4(CCCC(C)(C)[C@@H]4[C@H]3O)[C@H]2CC1 | Non-Toxic | inhibition (RAW264.7 [4]): Active; inhibition (RAW264.7 [2]): Dose-Dependent Effect; inhibition (RAW264.7 [5]): Dose-Dependent Effect; inhibition (RAW264.7 [6]): Active |
| C=C[C@]1(C)C=C2C(=O)C(=O)[C@H]3C(C)(C)CCC[C@]3(C(=O)O)[C@@]2(O)CC1 | Non-Toxic |  |
| C=C[C@@]1(C)CC[C@H]2C(=C[C@H](O)[C@H]3C(C)(C)CC[C@@H](O)[C@]23C)[C@H]1O | Non-Toxic |  |
| C=C[C@@]1(C)C[C@@H](O)[C@@H]2[C@@]34CCCC(C)(C)[C@@H]3[C@H](O)C(=O)[C@@]2(OC4=O)[C@H]1O | Non-Toxic |  |
| C=C[C@]1(C)C=C2C(=O)[C@@H](O)[C@H]3C(C)(C)CCC[C@]3(C(=O)O[C@@H]3O[C@H](CO)[C@@H](O)[C@H](O)[C@H]3O)[C@H]2CC1 | Non-Toxic |  |
| C=C[C@]1(C)C=C2[C@H](O)C[C@H]3C(C)(C)CC[C@@H](O)[C@]3(C)[C@H]2CC1 | Non-Toxic |  |
| C=C[C@@]1(C)CC(=O)C2=C([C@H]1O)[C@@]1(O)OC[C@@]23CCCC(C)(C)[C@@H]3[C@H]1O | Non-Toxic |  |
| C=C[C@]1(C)C=C2[C@H]([C@@H](O)C1)[C@@]1(C(=O)O)CCCC(C)(C)[C@@H]1C[C@@H]2O | Non-Toxic | inhibition (RAW264.7 [4]): Active; inhibition (RAW264.7 [2]): Dose-Dependent Effect; inhibition at 0.2 µM (RAW264.7 [7]): 92%; inhibition (RAW264.7 [5]): Dose-Dependent Effect; inhibition (RAW264.7 [6]): Active |
| C=C[C@]1(C)C=C2[C@@H](O)C(=O)[C@H]3C(C)(C)CCC[C@]3(C(=O)O[C@@H]3O[C@H](CO)[C@@H](O)[C@H](O)[C@H]3O)[C@H]2CC1 | Non-Toxic | inhibition (RAW264.7 [4]): Active; inhibition (RAW264.7 [2]): Dose-Dependent Effect; inhibition (RAW264.7 [5]): Dose-Dependent Effect; inhibition (RAW264.7 [6]): Active |
| C=C[C@@]1(C)CCc2c3c(c(O)c(OS(=O)(=O)O)c2[C@H]1O)C(C)(C)CCC3 | Non-Toxic |  |
